Measured values from patent US20250145573A1, “COMPOSITION FOR PREVENTING, ALLEVIATING OR TREATING CANCER” (CKP Therapeutics, Inc., priority 2023, published 2025).

What was measured:
[1] = system: metastatic PTC (YUMC-P1-meta or YUMC-P2-meta) cells; assay: Cell viability assay (MTT), metastatic PTC cells; assay type: cell-based, human
Procedure: (§1) Cell viability was measured using the MTT (3-(4,5-Dimethylthiazol-2-yl)-2,5-Diphenyltetrazolium Bromide) assay, cells were seeded in 96-well plates at 7×10^3 cells per well and incubated overnight to achieve 80% confluency. The detailed protocol can be found in our previous article. Data were expressed as a percentage of the signal observed in vehicle-treated cells and are shown as the means±SEM of triplicate experiments.
(§2) To evaluate to the anti-cancer efficacy of CKP1 and 2, combinatorial strategies with sorafenib or lenvatinib, we carried out cell viability assays for anti-cancer drug-sensitive (YUMC-S-P1) and main mass or lymph node metastasis PTC (YUMC-P1-main or YUMC-P2-main or YUMC-P1-meta or YUMC-P2-meta) cells treated with sorafenib or levatinib each agent treated alone or with CKP1 and CKP2.

[2] = system: YUMC-S-P1, YUMC-P1-main, YUMC-P2-main cells; assay: Cell viability assay (MTT), anti-cancer drug-sensitive and main mass PTC cells; assay type: cell-based, human
Procedure: as §1, §2

[3] = system: metastatic PTC cells (YUMC-P1 or -P2-meta) xenograft; assay: Human PTC cell xenograft, metastatic PTC cells; assay type: in vivo, mice; details: for tumor shrinkage: YUMC-P1 or -P2-meta xenograft; for tumor shrinkage (summary statement): xenograft tumor model developed using patient-derived antineoplastic-resistant cells
Procedure: (§3) All experiments were approved by the Animal Experiment Committee of Yonsei University. YUMC-S-P1, YUMC-P1 and -P2-main or meta patient-derived PTC cells (4.4×10^6 cells/mouse) were cultured in vitro and then injected subcutaneously into the upper left flank region of female NOD/Shi-scid, IL-2Rγ KOJic (NOG) mice. After 15 days, tumor-bearing mice were grouped randomly (n=10 per group) and treated SERCA inhibitors, thapsigargin (25 mg/kg), candidate 33 (12 mg/kg) and 36 (12 mg/kg, p.o.) with 80 mg/kg sorafenib (p.o.) either alone or combination. Tumor size was measured every three day using calipers. Tumor volume was estimated using the following formula: L×S2/2 (L, longest diameter; S, shortest diameter). Animals were maintained under specific pathogen-free conditions. All experiments were approved by the Animal Experiment Committee of Yonsei University.
(§4) We developed mouse xenograft models using anti cancer drug-sensitive (YUMC-S-P1) and metastatic PTC (YUMC-P1 and -P2-meta) cells and evaluated the anticancer effect of monotherapy with sorafenib, lenvatinib or with SERCA inhibitors (thapsigargin, CKP1 and 2) as well as that of the combination therapy between sorafenib or lenvatinib and a SERCA inhibitor. […] No significant changes in resected tumor weight were found between any of the treatment groups (FIG. 5a to 5e).

[4] = system: YUMC-S-P1 cells xenograft; assay: Human PTC cell xenograft, anti cancer drug-sensitive PTC cells; assay type: in vivo, mice
Procedure: as §3, §4

[5] = sorafenib or lenvatinib treatment alone, YUMC-P1-meta or YUMC-P2-meta
[6] = sorafenib or lenvatinib without CKP1 and CKP2, dose-dependent, YUMC-S-P1, YUMC-P1-main, YUMC-P2-main
[7] = sorafenib or lenvatinib without SERCA inhibitors
[8] = SERCA inhibitor alone treatment, whole PTC cells
[9] = combinatorial with sorafenib or lenvatinib treatment, dose-dependent, YUMC-P1-meta or YUMC-P2-meta
[10] = combination of sorafenib or lenvatinib with SERCA inhibitor
[11] = SERCA inhibitor with sorafenib or lenvatinib
[12] = in combination with sorafenib or lenvatinib, dose-dependent, YUMC-S-P1, YUMC-P1-main, YUMC-P2-main

| SMILES | cell viability [1, 5] | cell viability [2, 6] | tumor shrinkage ([3]; monotherapy) | tumor size [4, 7] | cell viability [1, 8] | cell viability [1, 9] | cell viability [2, 8] | tumor shrinkage [3, 10] | tumor size [4, 11] | cell viability [2, 12] | tumor shrinkage (summary statement) [3] |
| --- | --- | --- | --- | --- | --- | --- | --- | --- | --- | --- | --- |
| CNC(=O)c1cc(Oc2ccc(NC(=O)Nc3ccc(Cl)c(C(F)(F)F)c3)cc2)ccn1 [sorafenib, reference compound] | no remarkably influenced | significantly decreased | did not induce significant tumor shrinkage | decreased significantly tumor size | – | – | – | – | – | – | – |
| C/C=C(/C)C(=O)O[C@H]1C(C)=C2[C@H]([C@@H]1OC(=O)CCCCCCC)[C@@](C)(OC(C)=O)C[C@H](OC(=O)CCC)[C@@]1(O)[C@H]2OC(=O)[C@@]1(C)O [thapsigargin, reference compound] | – | – | – | – | did not critical influence | remarkably restrained the viability | did not critical influence | substantial tumor shrinkage | decreased significantly tumor size | – | – |
| Cc1cc(N=Cc2ccc(Cl)cc2)c2cccc(C)c2n1 [CKP2] | – | – | – | – | did not critical influence | remarkably restrained the viability | did not critical influence | substantial tumor shrinkage | decreased significantly tumor size | significantly decreased | significant tumor shrinkage |
| Cc1cc(C=Nc2ccc(Cl)cc2)c2cccc(C)c2n1 [CKP1] | – | – | – | – | did not critical influence | remarkably restrained the viability | did not critical influence | substantial tumor shrinkage | decreased significantly tumor size | significantly decreased | significant tumor shrinkage |
| COc1cc2nccc(Oc3ccc(NC(=O)NC4CC4)c(Cl)c3)c2cc1C(N)=O [lenvatinib, reference compound] | no remarkably influenced | significantly decreased | did not induce significant tumor shrinkage | decreased significantly tumor size | – | – | – | – | – | – | – |
